The values that follow come from patent US20260250640A1, “NOVEL COMPOSITIONS AND THEIR USE TO INCREASE MOTILITY, VIABILITY AND LIFESPAN OF SPERM CELLS AND FERTILITY” (IMV TECHNOLOGIES, priority 2023, published 2026).

The series relates to bull semen. The protocol:
• a 2.4 mM BaCl2 solution in OptiXcell was prepared, • 1 mL of this solution was resuspended in a 5 mg vial of DMNP-EDTA, • 1.5 mL of DMNP-EDTA were added for a final DMNP-EDTA concentration of 2.6 mM, • The solution was kept away from light, • The solution was contacted with semen in different chelator/semen ratios: • 1:1=>500 μL chelators+500 μL bull semen at 57 Mspz/mL • 1:0.75=>500 μL chelators+375 μL bull semen at 57 Mspz/mL • 1:0.5=>500 μL chelators+250 μL bull semen at 57 Mspz/mL • 1:0.25=>500 μL chelators+125 μL bull semen at 57 Mspz/mL • A BaCl2 solution only: 500 μL BaCl2 at 2.4 mM+500 μL bull semen at 57 Mspz/mL was prepared • The following analyses have been performed on frozen bull semen: • Mobility analysis on IVOS II™ at T=0 and T3H 37° C., • Acrosome integrity analysis on EasyCyte at T=0 and T3H 37° C., • Viability analysis on EasyCyte at T=0 and T3H 37° C. • Mitochondrial activity analysis on EasyCyte at T=0 and T3H 37° C.
The control corresponds to OptiXcell alone.

Consider `[Ba+2].[Cl-].[Cl-]` [BaCl2], for which the sperm viability result (T=3H 37° C.) is on record as “remained unchanged”.

Regarding `COc1cc(C(CN(CC(=O)O)CC(=O)O)N(CC(=O)O)CC(=O)O)c([N+](=O)[O-])cc1OC` (stereo not drawn) [chelator, DMNP-EDTA], the impact on viability entry is given as “No major impact” and the “sperm viability, difference vs. Control” value is given as “+13 pts”. For the same compound, the impact on mobility entry (T0 and T3H 37° C., conclusion) is “No major impact”. Further, under “T=3H 37° C., 1/1 chelator/semen”, the “sperm motility, difference vs control (OptiXcell alone)” value is on record as “+9 pts”. For the setting “presence of chelator (BaCl2/DMNP-EDTA solution in OptiXcell), T=0 and T3H 37° C.”, the sperm motility entry was “not affected”.
